One assay deals with c-Cbl (Homo sapiens (Human), UniProt P22681). The assay can be described thus: C-Cbl LCK Ub TR-FRET assay (c-cbl Lck HTRF). It is filed as biochemical. Conditions: for (fold-selectivity): C-cbl Lck HTRF IC50 relative to Cbl-b Lck HTRF IC50. The method, boiled down:
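Detection reagents added, brief spin, 20 min RT. IC50 fit normalized to no-LCK (low) and DMSO (high) controls.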

Another assay addresses Cbl-b (Homo sapiens (Human), UniProt Q13191). Kind of assay: Cbl-b LCK Ub TR-FRET assay (Cbl-b Lck HTRF). Format: biochemical. The method, boiled down: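 TR-FRET (340 nm excitation, 615/665 nm emission) read after adding HA-ubiquitin–UBE2D2 thioester, anti-HA-D2 and streptavidin-Eu. Beforehand, compounds incubated 60 min with biotinylated Cbl-b, then 90 min with His-LCK and ATP (1 mM in 2× mix); IC50 from 10 concentrations, DMSO high and no-LCK low controls.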
In general terms: TR-FRET usually uses a lanthanide donor and a delayed reading to cut background.

Counter-ions that a name gives are not always drawn.

Sequence of c-Cbl (P22681 47-435): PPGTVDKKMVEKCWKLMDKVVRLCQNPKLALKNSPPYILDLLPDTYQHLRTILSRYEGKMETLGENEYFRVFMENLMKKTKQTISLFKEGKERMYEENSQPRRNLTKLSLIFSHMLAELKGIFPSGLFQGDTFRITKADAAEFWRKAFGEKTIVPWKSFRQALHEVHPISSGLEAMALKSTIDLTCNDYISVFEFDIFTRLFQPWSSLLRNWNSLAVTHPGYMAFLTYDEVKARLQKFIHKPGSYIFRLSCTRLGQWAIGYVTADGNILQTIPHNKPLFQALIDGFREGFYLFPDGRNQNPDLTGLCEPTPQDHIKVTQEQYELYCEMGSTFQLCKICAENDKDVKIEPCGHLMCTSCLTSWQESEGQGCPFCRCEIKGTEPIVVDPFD
Sequence of Cbl-b (Q13191 40-426): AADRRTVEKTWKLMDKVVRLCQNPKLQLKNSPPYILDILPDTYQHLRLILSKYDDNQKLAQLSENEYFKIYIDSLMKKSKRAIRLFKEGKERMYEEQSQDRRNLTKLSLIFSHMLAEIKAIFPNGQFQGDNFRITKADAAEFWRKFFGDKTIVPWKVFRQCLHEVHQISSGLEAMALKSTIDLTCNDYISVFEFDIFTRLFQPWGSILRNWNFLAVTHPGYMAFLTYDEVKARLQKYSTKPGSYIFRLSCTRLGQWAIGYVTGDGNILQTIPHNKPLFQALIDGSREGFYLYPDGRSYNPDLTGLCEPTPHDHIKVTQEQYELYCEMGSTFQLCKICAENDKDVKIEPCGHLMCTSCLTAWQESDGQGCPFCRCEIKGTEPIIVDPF

As to `CCOc1cc(C2(Cc3nncn3C)COC2)cc(N2Cc3c(cc(CNC4(C)CCC4)cc3C(F)(F)F)C2=O)n1` [Compound 304, 2-(6-ethoxy-4-(3-((4-methyl-4H-1,2,4-triazol-3-yl)methyl)oxetan-3-yl)pyridin-2-yl)-6-(((1-methylcyclobutyl)amino)methyl)-4-(trifluoromethyl)isoindolin-1-one], at c-Cbl, the IC50 worked out at 7.9 nM and the “(fold-selectivity)” value was “(0.73x)”. Also, 11 nM corresponded to half-maximal inhibition on Cbl-b (IC50).
For `Cc1cnnn1CC1(c2cccc(N3Cc4c(cc(CNC5(C)CCC5)cc4C(F)F)C3=O)c2)COC1` [Compound 305, 4-(difluoromethyl)-2-(3-(3-((5-methyl-1H-1,2,3-triazol-1-yl)methyl)oxetan-3-yl)phenyl)-6-(((1-methylcyclobutyl)amino)methyl) isoindolin-1-one], in that order: 49 nM, “(1.3x)” and 39 nM.
In the same order, the values of `Cn1cnnc1CC1(c2cc(N[C@H]3CC[C@@H](N)CC3)nc(N3Cc4c(cc(CNC5(C)CCC5)cc4C(F)(F)F)C3=O)c2)CCC1` [Compound 306, 2-(6-(((1s,4s)-4-aminocyclohexyl)amino)-4-(1-((4-methyl-4H-1,2,4-triazol-3-yl)methyl)cyclobutyl)pyridin-2-yl)-6-(((1-methylcyclobutyl)amino)methyl)-4-(trifluoromethyl)isoindolin-1-one] are 89 nM, “(1.2x)” and 76 nM.
For the compound `CCNC(=O)CNc1cc(C2(Cc3nncn3C)CCC2)cc(N2Cc3c(cc(CNC4(C)CCC4)cc3C(F)(F)F)C2=O)n1` [Compound 307, N-ethyl-2-((4-(1-((4-methyl-4H-1,2,4-triazol-3-yl)methyl)cyclobutyl)-6-(6-(((1-methylcyclobutyl)amino)methyl)-1-oxo-4-(trifluoromethyl)isoindolin-2-yl)pyridin-2-yl)amino)acetamide formate], the IC50 on c-Cbl was determined as 310 nM; at Cbl-b, 180 nM.
On to `Cn1cnnc1CC1(c2cc(NCCC#N)nc(N3Cc4c(cc(CNC5(C)CCC5)cc4C(F)(F)F)C3=O)c2)CCC1` [Compound 308, 3-((4-(1-((4-methyl-4H-1,2,4-triazol-3-yl)methyl)cyclobutyl)-6-(6-(((1-methylcyclobutyl)amino)methyl)-1-oxo-4-(trifluoromethyl)isoindolin-2-yl)pyridin-2-yl)amino)propanenitrile], for which, on c-Cbl, the midpoint of inhibition, the IC50, lay at 7.5 nM and the “(fold-selectivity)” value is reported as “(0.63x)”. At Cbl-b, this compound registered an IC50 of 12 nM.
For the compound `CC1CCN(CCNc2cc(C3(Cc4nncn4C)CCC3)cc(N3Cc4c(cc(CNC5(C)CCC5)cc4C(F)(F)F)C3=O)n2)CC1` [Compound 309, 2-(4-(1-((4-methyl-4H-1,2,4-triazol-3-yl)methyl)cyclobutyl)-6-((2-(4-methylpiperidin-1-yl)ethyl)amino)pyridin-2-yl)-6-(((1-methylcyclobutyl)amino)methyl)-4-(trifluoromethyl)isoindolin-1-one formate], the IC50 was 520 nM against c-Cbl and 540 nM against Cbl-b.
In the same order, the values of `CNc1cc(C2(Cc3nncn3C)CCC2)cc(N2Cc3c(cc(CNC4(C)CCC4)cc3C(F)(F)F)C2=O)n1` [Compound 310, 2-(4-(1-((4-methyl-4H-1,2,4-triazol-3-yl)methyl)cyclobutyl)-6-(methylamino)pyridin-2-yl)-6-(((1-methylcyclobutyl)amino)methyl)-4-(trifluoromethyl)isoindolin-1-one formate] are 11 nM and 10 nM.
For `CN(C)C(=O)CNc1cc(C2(Cc3nncn3C)CCC2)cc(N2Cc3c(cc(CNC4(C)CCC4)cc3C(F)(F)F)C2=O)n1` [Compound 311, N,N-dimethyl-2-((4-(1-((4-methyl-4H-1,2,4-triazol-3-yl)methyl)cyclobutyl)-6-(6-(((1-methylcyclobutyl)amino)methyl)-1-oxo-4-(trifluoromethyl)isoindolin-2-yl)pyridin-2-yl)amino)acetamide formate], in that order: 140 nM and 110 nM.
With `CNS(=O)(=O)CCNc1cc(C2(Cc3nncn3C)CCC2)cc(N2Cc3c(cc(CNC4(C)CCC4)cc3C(F)(F)F)C2=O)n1` [Compound 312, N-methyl-2-((4-(1-((4-methyl-4H-1,2,4-triazol-3-yl)methyl)cyclobutyl)-6-(6-(((1-methylcyclobutyl)amino)methyl)-1-oxo-4-(trifluoromethyl)isoindolin-2-yl)pyridin-2-yl)amino)ethanesulfonamide], at c-Cbl, the IC50 came to 110 nM and the “(fold-selectivity)” value is reported as “(1.5x)”. The compound further yielded an IC50 against Cbl-b of 70 nM.
`Cn1cc(CNc2cc(C3(Cc4nncn4C)CCC3)cc(N3Cc4c(cc(CNC5(C)CCC5)cc4C(F)(F)F)C3=O)n2)cn1` [Compound 313, 2-(6-(((1-methyl-1H-pyrazol-4-yl)methyl)amino)-4-(1-((4-methyl-4H-1,2,4-triazol-3-yl)methyl)cyclobutyl)pyridin-2-yl)-6-(((1-methylcyclobutyl)amino)methyl)-4-(trifluoromethyl)isoindolin-1-one]: at c-Cbl, half-maximal inhibition (IC50) was put at 23 nM and the “(fold-selectivity)” value is “(0.95x)”. This compound also showed an IC50 at Cbl-b of 24 nM.
In the case of `CC(=O)NCCCCNc1cc(C2(Cc3nncn3C)CCC2)cc(N2Cc3c(cc(CNC4(C)CCC4)cc3C(F)(F)F)C2=O)n1` [Compound 314, N-(4-((4-(1-((4-methyl-4H-1,2,4-triazol-3-yl)methyl)cyclobutyl)-6-(6-(((1-methylcyclobutyl)amino)methyl)-1-oxo-4-(trifluoromethyl)isoindolin-2-yl)pyridin-2-yl)amino)butyl)acetamide formate], the IC50 was found to be 31 nM against c-Cbl and 27 nM against Cbl-b.
In the case of `Cn1cnnc1CC1(c2cc(NCC3CCS(=O)(=O)CC3)nc(N3Cc4c(cc(CNC5(C)CCC5)cc4C(F)(F)F)C3=O)c2)CCC1` [Compound 315, 2-(6-(((1,1-dioxidotetrahydro-2H-thiopyran-4-yl)methyl)amino)-4-(1-((4-methyl-4H-1,2,4-triazol-3-yl)methyl)cyclobutyl)pyridin-2-yl)-6-(((1-methylcyclobutyl)amino)methyl)-4-(trifluoromethyl)isoindolin-1-one], at c-Cbl, the IC50 came to 480 nM and the “(fold-selectivity)” value is “(0.84x)”. In addition, on Cbl-b, inhibition was half-maximal at 570 nM (IC50).
For `Cn1cnnc1CC1(c2cc(NCCc3c[nH]c4ccccc34)nc(N3Cc4c(cc(CNC5(C)CCC5)cc4C(F)(F)F)C3=O)c2)CCC1` [Compound 316, 2-(6-((2-(1H-indol-3-yl)ethyl)amino)-4-(1-((4-methyl-4H-1,2,4-triazol-3-yl)methyl)cyclobutyl)pyridin-2-yl)-6-(((1-methylcyclobutyl)amino)methyl)-4-(trifluoromethyl)isoindolin-1-one], in that order: 20 nM, “(1.2x)” and 16 nM.
For `Cn1cnnc1CC1(c2cc(NCC(F)(F)CO)nc(N3Cc4c(cc(CNC5(C)CCC5)cc4C(F)(F)F)C3=O)c2)CCC1` [Compound 317, 2-(6-((2,2-difluoro-3-hydroxypropyl)amino)-4-(1-((4-methyl-4H-1,2,4-triazol-3-yl)methyl)cyclobutyl)pyridin-2-yl)-6-(((1-methylcyclobutyl)amino)methyl)-4-(trifluoromethyl)isoindolin-1-one], in that order: 27 nM, “(1.2x)” and 22 nM.
`CN(C)Cc1cccc(CNc2cc(C3(Cc4nncn4C)CCC3)cc(N3Cc4c(cc(CNC5(C)CCC5)cc4C(F)(F)F)C3=O)n2)c1` [Compound 318, 2-(6-((3-((dimethylamino)methyl)benzyl)amino)-4-(1-((4-methyl-4H-1,2,4-triazol-3-yl)methyl)cyclobutyl)pyridin-2-yl)-6-(((1-methylcyclobutyl)amino)methyl)-4-(trifluoromethyl)isoindolin-1-one]: on c-Cbl, the IC50 came to 140 nM and the “(fold-selectivity)” value is listed as “(1.1x)”. The same compound returned an IC50 against Cbl-b of 130 nM.
In the case of `CC(NCc1cc2c(c(C(F)(F)F)c1)CN(c1cccc(C3(Cc4nncn4C)CC(F)(F)C3)c1)C2=O)C1CC1` (stereo not drawn) [Compound 319, 6-(((1-cyclopropylethyl)amino)methyl)-2-(3-(3,3-difluoro-1-((4-methyl-4H-1,2,4-triazol-3-yl)methyl)cyclobutyl)phenyl)-4-(trifluoromethyl)isoindolin-1-one formate], the IC50 stood at 16 nM on c-Cbl and 14 nM against Cbl-b.
Turning to `Cn1cnc(CNc2cc(C3(Cc4nncn4C)CCC3)cc(N3Cc4c(cc(CNC5(C)CCC5)cc4C(F)(F)F)C3=O)n2)c1` [Compound 320, 2-(6-(((1-methyl-1H-imidazol-4-yl)methyl)amino)-4-(1-((4-methyl-4H-1,2,4-triazol-3-yl)methyl)cyclobutyl)pyridin-2-yl)-6-(((1-methylcyclobutyl)amino)methyl)-4-(trifluoromethyl)isoindolin-1-one], at c-Cbl, the IC50 turned out to be 51 nM and the “(fold-selectivity)” value was “(2.4x)”. Besides, half-maximal inhibition against Cbl-b (IC50) required 21 nM.
On to `Cn1cnnc1CC1(c2cc(NCCc3ccncc3)nc(N3Cc4c(cc(CNC5(C)CCC5)cc4C(F)(F)F)C3=O)c2)CCC1` [Compound 321, 2-(4-(1-((4-methyl-4H-1,2,4-triazol-3-yl)methyl)cyclobutyl)-6-((2-(pyridin-4-yl)ethyl)amino)pyridin-2-yl)-6-(((1-methylcyclobutyl)amino)methyl)-4-(trifluoromethyl)isoindolin-1-one], for which, on c-Cbl, the 50% inhibitory concentration (IC50) amounted to 23 nM and the “(fold-selectivity)” value was “(1.3x)”. The compound also came in with an IC50 on Cbl-b of 18 nM.

One may read the IC50 as the concentration that inhibits the measured activity by half. The low end stands for inhibition by little substance, the high end for a need for much substance.

For the origin of these results see patent US20250230147A1, “LACTAMS AS CBL-B INHIBITORS” (Genentech, Inc., priority 2021, published 2025).
